In US20090062277A1, “PHOSPHODIESTERASE 10 INHIBITORS” (priority 2007, published 2009):

molecular target: T1, mPDE10A7 (Mus musculus, UniProt Q8CA95); assay: mPDE10A7 enzyme inhibition (IMAP fluorescence polarization); format: biochemical; settings: fluorescein labeled cAMP or cGMP substrate, 30 min at room temperature
T1 sequence (Q8CA95 446-763 limits assumed): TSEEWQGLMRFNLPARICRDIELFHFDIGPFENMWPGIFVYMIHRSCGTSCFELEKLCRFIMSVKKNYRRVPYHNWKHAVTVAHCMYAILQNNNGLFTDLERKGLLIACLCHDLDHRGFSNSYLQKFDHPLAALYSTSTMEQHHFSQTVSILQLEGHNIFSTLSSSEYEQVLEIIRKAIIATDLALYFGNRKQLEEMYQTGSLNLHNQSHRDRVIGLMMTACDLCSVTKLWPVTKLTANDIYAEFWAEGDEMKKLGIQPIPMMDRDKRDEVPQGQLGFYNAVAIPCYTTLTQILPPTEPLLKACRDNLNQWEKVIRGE
Description: Enzyme Activity. To analyze the enzyme activity, 5 μL of serial diluted mPDE10A7 containing lysate were incubated with equal volumes of diluted (100-fold) fluorescein labeled cAMP or cGMP for 30 min in MDC HE 96-well assay plates (Molecular Devices Corp., Sunnyvale Calif.) at room temperature. Both the enzyme and the substrates were diluted in the following assay buffer: Tris/HCl (pH 8.0) 50 mM, MgCl2 5 mM, 2-mercaptoethanol 4 mM, and BSA 0.33 mg/mL. After incubation, the reaction was stopped by adding 20 μL of diluted (400-fold) binding reagents and was incubated for an hour at room temperature. The plates were counted in an Analyst GT (Molecular Devices) for fluorescence polarization. An IMAP assay kit (Molecular Devices) was used to assess enzyme properties of mPDE10A7. Data were analyzed with SOFTMAX PRO software (Molecular Devices).
Enzyme Inhibition. To check the inhibition profile, 10 μL of serial diluted compounds were incubated with 30 μl of diluted PDE enzymes in a 96-well polystyrene assay plate for 30 min at room temperature. After incubation, 5 μL of the compound-enzyme mixture were aliquoted into a MDC HE black plate, mixed with 5 μl of 100-fold diluted fluorescein labeled substrates (cAMP or cGMP), and incubated for 30 min at room temperature. The reaction was stopped by adding 20 μL of diluted binding reagents and counted in an Analyst GT for fluorescence polarization. The data were analyzed with SoftMax Pro.

IC50 | SMILES
5.58 nM | COc1cc2nncc(-c3ccc(N4CCC(O)(c5ccccn5)CC4)nc3)c2cc1OC [Cpd 2, 1-(5-(6,7-dimethoxycinnolin-4-yl)pyridin-2-yl)-4-(pyridin-2-yl)piperidin-4-ol]
2.8 nM | COc1cc2nncc(-c3cnc(N4CCC(O)(C5CC5)CC4)c(C)c3)c2cc1OC [Cpd 4, 4-cyclopropyl-1-(5-(6,7-dimethoxycinnolin-4-yl)-3-methylpyridin-2-yl)piperidin-4-ol]
0.6 nM | COc1cc2nncc(-c3cnc(N4CCC(C)(O)CC4)c(C)c3)c2cc1OC [Cpd 7, 1-(5-(6,7-dimethoxycinnolin-4-yl)-3-methylpyridin-2-yl)-4-methylpiperidin-4-ol]
3.07 nM | COc1cc2nncc(-c3cnc(N4CCC(O)(c5ccccn5)CC4)c(Cl)c3)c2cc1OC [Cpd 8, 1-(3-chloro-5-(6,7-dimethoxycinnolin-4-yl)pyridin-2-yl)-4-(pyridin-2-yl)piperidin-4-ol]
1 nM | COC[C@H]1CCCN1c1ncc(-c2cnnc3cc(OC)c(OC)cc23)cc1Cl [Cpd 9]
14.7 nM | COc1cc2cncc(-c3cnc(N4CCC(C(C)(C)O)CC4)c(C)c3)c2cc1OC [Cpd 12]
1.02 nM | COc1cc2nncc(-c3cnc(N4CCC(O)(c5cccnc5)CC4)c(C)c3)c2cc1OC [Cpd 13]
417 nM | COc1cc2nncc(-c3ccc(N4CCN(c5ncc(Cl)cc5Cl)CC4)nc3)c2cc1OC [Cpd 14]
126 nM | COc1cc2nncc(-c3ccc(N4CCN(c5cccc(C(F)(F)F)c5)CC4)nc3)c2cc1OC [Cpd 15]
11 nM | COc1cc2nncc(-c3cnc(N4CCN(c5ccc(F)cc5F)CC4)c(C)c3)c2cc1OC [Cpd 16]
10.2 nM | COc1cc2nncc(-c3ccc(N4CCN(CC5CC5)CC4)nc3)c2cc1OC [Cpd 17]
6.56 nM | COc1cc2nncc(-c3ccc(N4CCN(C(C)=O)CC4)nc3)c2cc1OC [Cpd 18]
60.2 nM | COc1cc2nncc(-c3ccc(N4CCCC4CN(C)C)nc3)c2cc1OC (centres unmarked) [Cpd 20]
4.85 nM | COc1cc2nncc(-c3ccc(N4CCN(C(=O)C5CC5)CC4)nc3)c2cc1OC [Cpd 22]
4.22 nM | COc1cc2nccc(-c3cnc(N4CCC(C(C)(C)O)CC4)c(C)c3)c2cc1OC [Cpd 24]
7.42 nM | COc1cc2nncc(-c3ccc(N4CCCC4c4cccs4)nc3)c2cc1OC (centres unmarked) [Cpd 25]
5.63 nM | COc1cc2nncc(-c3ccc(N4CCC(C(=O)N5CCOCC5)CC4)nc3)c2cc1OC [Cpd 27]
2.08 nM | COc1cc2nncc(-c3cnc(N4CCC(C(N)=O)CC4)c(C)c3)c2cc1OC [Cpd 28]
9.57 nM | CCOC(=O)C1CCN(c2ccc(-c3cnnc4cc(OC)c(OC)cc34)cn2)CC1 [Cpd 30]
191 nM | COc1cc2c(-c3ccc(N4CCC(O)(c5ccccc5)CC4)nc3)cnnc2cc1C [Cpd 35]
